Assay [1] has as its target T1, Vasopressin V1 receptor subtype in Human Platelet Membranes (Homo sapiens, UniProt P37288).
T1 construct: Frozen platelet rich plasma (PRP), received from the Hudson Valley Blood Services, are thawed to room temperature; tissue Hudson Valley Blood Services; host or cells: human platelets (platelet rich plasma)
Kind of assay: Binding to Vasopressin V1 receptor subtype in Human Platelet Membranes. How it is done:
Radioligand Binding Experiments with Human Platelet Membranes
Platelet Source: Hudson Valley Blood Services,
Westchester Medical Center, Valhalla, N.Y.
Platelet Membrane Preparation
Frozen platelet rich plasma (PRP), received from the Hudson Valley Blood Services, are thawed to room temperature. The tubes containing the PRP are centrifuged at 16,000×g for 10 min. at 4° C. and the supernatant fluid discarded. The platelets resuspended in an equal volume of 50.0 mM Tris.HCl, pH 7.5 containing 120 mM NaCl and 20.0 mM EDTA. The suspension is recentrifuged at 16,000×g for 10 min. This washing step is repeated one more time. The wash discarded and the lysed pellets homogenized in low ionic strength buffer of Tris.HCl, 5.0 mM, pH 7.5 containing 5.0 mM EDTA. The homogenate is centrifuged at 39,000×g for 10 min. The resulting pellet is resuspended in Tris.HCl buffer, 70.0 mM, pH 7.5 and recentrifuged at 39,000×g for 10 min. The final pellet is resuspended in 50.0 mM Tris.HCl buffer pH 7.4 containing 120 mM NaCl and 5.0 mM KCl to give 1.0-2.0 mg protein per ml of suspension.
Binding to Vasopressin V1 receptor subtype in Human Platelet Membranes
In wells of 96 well format microtiter plate, add 100 μl of 50.0 mM Tris.HCl buffer containing 0.2% BSA and a mixture of protease inhibitors (aprotinin, leupeptin etc.). Then add 20 μl of [^3 H]Ligand (Manning or Arg^8 Vasopressin), to give final concentrations ranging from 0.01 to 10.0 nM. Initiate the binding by adding 80.0 μl of platelet suspension (approx. 100 μg protein). Mix all reagents by pipetting the mixture up and down a few times. Non specific binding is measured in the presence of 1.0 μM of unlabeled ligand (Manning or Arg^8 Vasopressin). Let the mixture stand undisturbed at room temperature for ninety (90) min. Upon this time, rapidly filter off the incubate under vacuum suction over GF/B filters, using a Brandel® Harvester. Determine the radioactivity caught on the filter disks by the addition of liquid scintillant and counting in a liquid scintillator.

The target of assay [2] is T2, Rat Kidney Medullary V2 Receptors (Rattus norvegicus, UniProt Q00788).
T2 construct: Medullary tissues from rat kidneys are dissected out; from tissue; host or cells: rat kidney medulla membranes
Nature of the assay: biochemical. The assay is classed as binding.

The test system of assay [3] is Endogenous Arginine Vasopressin Antidiuretic (V2) Response in Conscious Rats. Kind of assay: Antagonism of Endogenous Arginine Vasopressin Antidiuretic (V2) Response in Conscious Rats (urine volume). The assay is classed as in vivo, rat (Sprague-Dawley). Particulars: 10 mg/kg rat p.o.; 4 hour collection. The source says:
Effects on the Antagonism of Endogenous Arginine Vasopressin Antidiuretic (V2) Response in Conscious Rats with Free Access to Water Drinking Before but not During the Experiment:
Male or female normotensive Sprague-Dawley rats (Charles River Laboratories, Inc., Kingston, N.Y.) of 400-450 g body weight were supplied with Laboratory Rodent Feed #5001 (PMI Feeds, Inc., Richmond, Id.) and water ad libitum. On the day of test, rats were placed individually into metabolic cages equipped with stainless steel screens (to separate the feces from the urine) and funnels for collection of urine. Vehicle or reference agent was given at various oral doses. During the test, rats were not provided with water or food. Urine was collected for four hours after dosing of the test compound. At the end of four hours, urine volume was measured. Urinary osmolality was determined using a Fiske One-Ten Osmometer (Fiske Associates, Norwood, Mass. 02062) or an Advanced CRYOMATIC Osmometer, Model 3C2 (Advanced Instruments, Norwood, Mass.). Determinations of Na^+, K^+ and Cl^- ion were carried out using ion specific electrodes in a Beckman SYNCHRON EL-ISE Electrolyte System analyzer. In the following results, increased urine volume and decreased osmolality relative to AVP-control indicates activity.

Assay [4] has as its target T3, Human V2 Vasopressin Receptor (Homo sapiens, UniProt P30518).
T3 construct: expressed in transfected cells; host or cells: mouse fibroblast cell line LV-2
Kind of assay: Binding to Membranes of Mouse Fibroblast Cell Line (LV-2) Transfected with the cDNA Expressing the Human V2 Vasopressin Receptor. How it is done: Binding to Membranes of Mouse Fibroblast Cell Line (LV-2) Transfected with the cDNA Expressing the Human V2 Vasopressin Receptor Membrane Preparation
Flasks of 175 ml capacity, containing attached cells grown to confluence, are cleared of culture medium by aspiration. The flasks containing the attached cells are rinsed with 2×5 ml of phosphate buffered saline (PBS) and the liquid aspirated off each time. Finally, 5 ml of an enzyme free dissociation Hank's based solution (Specialty Media, Inc., Lafayette, N.J.) is added and the flasks are left undisturbed for 2 min. The content of all flasks is poured into a centrifuge tube and the cells pelleted at 300×g for 15 min. The Hank's based solution is aspirated off and the cells homogenized with a polytron at setting #6 for 10 sec in 10.0 mM Tris.HCl buffer, pH 7.4 containing 0.25M sucrose and 1.0 mM EDTA. The homogenate is centrifuged at 1500×g for 10 min to remove ghost membranes. The supernatant fluid is centrifuged at 100,000×g for 60 min to pellet the receptor protein. Upon completion, the pellet is resuspended in a small volume of 50.0 mM Tris.HCl buffer, pH 7.4. The protein content is determined by the Lowry method and the receptor membranes are suspended in 50.0 mM Tris.HCl buffer containing 0.1 mM phenylmethylsulfonylfluoride (PMSF) and 0.2% bovine serum albumin (BSA) to give 2.5 mg receptor protein per ml of suspension.
For binding experiments, the following is added in μl volume to wells of a 96 well format of a microtiter plate: 100.0 μl of 100.0 mM Tris.HCl buffer containing 0.2% heat inactivated BSA, 10.0 mM MgCl2 and a mixture of protease inhibitors: leupeptin, 1.0 mg %; aprotinin, 1.0 mg %; 1,10-phenanthroline, 2.0 mg %; trypsin inhibitor, 10.0 mg % and 0.1 mM PMSF, 20.0 μl of [^3 H] Arginine^8, vasopressin (S.A. 75.0 Ci/mmole) at 0.8 nM and the reaction initiated by the addition of 80.0 μl of tissue membranes (200.0 μg tissue protein). The plates are left undisturbed on the bench top for 120 min to reach equilibrium. Non specific binding is assessed in the presence of 1.0 μm of unlabeled ligand, added in 20 μl volume. For test compounds, these are solubilized in 50% dimethylsulfoxide (DMSO) and added in 20.0 μl volume to a final incubation volume of 200 μl. Upon completion of binding, the content of each well is filtered off, using a Brandel® cell Harvester (Gaithersburg, Md.). The radioactivity trapped on the filter disk by the ligand-receptor complex is assessed by liquid scintillation counting in a Packard LS Counter, with an efficiency of 65% for tritium. The data are analyzed for IC50 values by the LUNDON-2 program for competition (LUNDON SOFTWARE, Ohio).

For the next assay, the target named is T4, oxytocin receptors (Rattus norvegicus, UniProt P70536).
T4 sequence (P70536 1-388): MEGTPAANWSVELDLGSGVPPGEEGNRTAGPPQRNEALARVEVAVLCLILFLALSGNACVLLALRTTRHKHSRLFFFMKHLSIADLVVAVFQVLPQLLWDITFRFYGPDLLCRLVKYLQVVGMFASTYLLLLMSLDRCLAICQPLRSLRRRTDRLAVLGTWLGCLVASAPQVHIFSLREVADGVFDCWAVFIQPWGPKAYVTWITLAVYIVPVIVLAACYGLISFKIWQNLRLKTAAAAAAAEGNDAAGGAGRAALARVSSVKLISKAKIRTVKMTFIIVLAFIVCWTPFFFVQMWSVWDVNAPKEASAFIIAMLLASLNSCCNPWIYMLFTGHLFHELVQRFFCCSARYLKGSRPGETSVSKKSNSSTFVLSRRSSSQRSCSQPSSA
Kind of assay: Oxytocin Receptor Binding. To be noted: for IC50: rat uterine membranes, [3H]oxytocin.

The target in another assay is Rat Hepatic V1 Receptors (Rattus norvegicus, UniProt P30560). Kind of assay: Binding Assay to Rat Hepatic V1 Receptors. How it is done:
Binding Assay to Rat Hepatic V1 Receptors
Rat liver plasma membranes expressing the vasopressin V1 receptor subtypes are isolated by sucrose density gradient according to the method described by Lesko et al, (1973). These membranes are quickly suspended in 50.0 mM Tris.HCl buffer, pH 7.4, containing 0.2% bovine serum albumin (BSA) and 0.1 mM phenylmethylsulfonylfluoride (PMSF) and kept frozen at -70° C. until used in subsequent binding experiments. For binding experiments, the following is added to the wells of a ninety-six well format microtiter plate: 100 μl of 100.0 mM Tris.HCl buffer containing 10.0 mM MgCl2, 0.2% heat inactivated BSA and a mixture of protease inhibitors: leupeptin, 1.0 mg %; aprotinin, 1.0 mg %; 1,10-phenanthroline,2.0 mg %; trypsin inhibitor, 10.0 mg % and 0.1 mM PMSF, 20.0 μl of [phenylalanyl-3,4,5,-^3 H] vaso-pressin (S.A. 45.1 Ci/mmole) at 0.8 nM, and the reaction initiated by the addition of 80 μl of tissue membranes containing 20 μg of tissue protein. The plates are kept undisturbed on the bench top at room temperature for 120 min. to reach equilibrium. Non-specific samples are assayed in the presence of 0.1 μm of the unlabeled antagonist phenylalanylvasopressin, added in 20.0 μl volume. For test compounds, these are solubilized in 50% dimethylsulfoxide (DMSO) and added in 20.0 μl volume to a final incubation volume of 200 μl. Upon completion of binding, the content of each well is filtered off, using a Brandel® cell Harvester (Gaithersburg, Md.). The radioactivity trapped on the filter disk by the ligand-receptor complex is assessed by liquid scintillation counting in a Packard LS Counter, with an efficiency of 65% for tritium. The data are analyzed for IC50 values by the LUNDON-2 program for competition (LUNDON SOFTWARE, Ohio).

Setting [5] is: LV-2 cells transfected with human V2 receptor cDNA, Table 5, read-out: Vasopressin Binding Human V2 Receptor.

Like-named read-outs stand apart in the source and are kept apart here.

The inhibition is the relative decrease from the control value, in per cent.

T2 sequence (Q00788 whole entry): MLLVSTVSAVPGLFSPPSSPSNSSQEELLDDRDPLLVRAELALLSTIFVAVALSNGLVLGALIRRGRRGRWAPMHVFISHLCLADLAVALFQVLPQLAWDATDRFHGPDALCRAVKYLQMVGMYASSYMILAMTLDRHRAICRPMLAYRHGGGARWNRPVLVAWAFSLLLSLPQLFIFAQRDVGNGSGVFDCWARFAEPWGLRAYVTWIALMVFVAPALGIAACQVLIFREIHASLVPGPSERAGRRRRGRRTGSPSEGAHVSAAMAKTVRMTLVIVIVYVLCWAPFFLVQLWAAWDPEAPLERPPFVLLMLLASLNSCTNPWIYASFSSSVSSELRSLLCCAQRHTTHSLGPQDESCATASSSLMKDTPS
T1 sequence (P37288 whole entry): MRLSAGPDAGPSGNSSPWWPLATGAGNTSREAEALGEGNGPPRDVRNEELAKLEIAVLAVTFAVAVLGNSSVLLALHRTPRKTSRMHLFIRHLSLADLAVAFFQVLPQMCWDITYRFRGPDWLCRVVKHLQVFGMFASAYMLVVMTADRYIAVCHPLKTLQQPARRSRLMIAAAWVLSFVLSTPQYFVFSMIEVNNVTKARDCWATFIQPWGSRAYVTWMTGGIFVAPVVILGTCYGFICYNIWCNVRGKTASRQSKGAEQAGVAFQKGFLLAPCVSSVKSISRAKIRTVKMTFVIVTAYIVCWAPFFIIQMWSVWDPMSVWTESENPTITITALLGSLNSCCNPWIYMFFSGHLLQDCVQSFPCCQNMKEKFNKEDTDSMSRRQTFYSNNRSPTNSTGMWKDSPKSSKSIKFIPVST
T3 sequence (P30518 whole entry): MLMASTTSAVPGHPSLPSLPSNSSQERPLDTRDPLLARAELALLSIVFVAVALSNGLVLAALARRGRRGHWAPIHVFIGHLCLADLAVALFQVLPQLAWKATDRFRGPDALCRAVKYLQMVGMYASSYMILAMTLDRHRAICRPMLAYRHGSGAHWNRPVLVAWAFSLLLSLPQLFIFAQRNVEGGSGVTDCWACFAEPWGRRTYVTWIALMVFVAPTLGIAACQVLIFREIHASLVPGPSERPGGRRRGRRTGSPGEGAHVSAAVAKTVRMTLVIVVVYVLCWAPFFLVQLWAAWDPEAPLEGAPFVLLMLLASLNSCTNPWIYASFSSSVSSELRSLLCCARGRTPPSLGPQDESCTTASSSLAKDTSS
Chain of Rat Hepatic V1 Receptors (P30560 whole entry): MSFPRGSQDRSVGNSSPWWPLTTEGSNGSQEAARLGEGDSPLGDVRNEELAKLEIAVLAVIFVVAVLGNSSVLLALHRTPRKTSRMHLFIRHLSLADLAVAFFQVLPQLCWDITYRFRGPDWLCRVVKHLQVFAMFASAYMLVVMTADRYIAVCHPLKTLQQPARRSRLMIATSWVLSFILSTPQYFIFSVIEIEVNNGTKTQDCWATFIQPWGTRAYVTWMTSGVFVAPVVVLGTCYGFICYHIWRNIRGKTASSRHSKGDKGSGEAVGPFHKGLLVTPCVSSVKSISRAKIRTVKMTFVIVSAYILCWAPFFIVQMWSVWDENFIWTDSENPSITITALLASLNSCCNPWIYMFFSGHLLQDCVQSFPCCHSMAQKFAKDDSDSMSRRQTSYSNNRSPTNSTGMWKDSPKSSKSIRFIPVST

Consider `CN(C)CCCNc1ncccc1C(=O)Nc1ccc(C(=O)N2Cc3cccn3Cc3ccccc32)cc1` [Example 335, N-[4-(5H-pyrrolo[2,1-c][1,4]benzodiazepin-10(11H)-ylcarbonyl)phenyl]-2-[(3-dimethylaminopropyl)amino]pyridine-3-carboxamide], for which the inhibition at 1 µM in assay [1] (1.5 h, * human platelet V1, at 1 μM) was 100%; in assay [2] (at 1 μM), 60%.

Turning to `CN(C)Cc1ccc2n1Cc1ccccc1N(C(=O)c1ccc(NC(=O)c3ccccc3-c3ccccc3)cc1O)C2` [Example 372], the “Urine Volume” value in assay [3] was 30.3 ml/4 hrs. In assay [4] (setting [5]), the IC50 amounted to 0.0159 µM.

As to `O=C(Nc1ccc(C(=O)N2Cc3cccn3Cc3ccccc32)c(Cl)c1)c1cccc2cccnc12` [Example 378, Ouinoline-8-carboxylic acid [4-(5H,11H-pyrrolo[2,1-c][1,4]benzodiazepine-10-carbonyl)-3-phenyl]-amide], in assay [3], the “Urine Volume” value was 11.7 ml/4 hrs. For the same molecule, the IC50 in assay [4] (setting [5]) came out at 0.0691 µM.

On to `Cc1c(F)cccc1C(=O)Nc1ccc(C(=O)N2Cc3cccn3Cc3ccccc32)cn1` [Example 4], for which the IC50 was 0.044 µM in assay [1] (* V1 receptor subtype in human platelet), 0.67 µM on oxytocin receptors and 0.001 µM in assay [2]. Testing at 10 µM on oxytocin receptors gave an inhibition of 100%.

Consider `CN(C)Cc1ccc2n1Cc1ccccc1N(C(=O)c1ccc(NC(=O)C3=C(c4ccccc4)CCC3)cc1Cl)C2` [Example 379, [3-Chloro-4-(3-dimethylaminomethyl-5H,11H-pyrrolo[2,1-c][1,4]benzodiazepine-10-carbonyl)-phenyl]-2-phenylcyclopent-1-enecarboxylic acid amide], for which the “Urine Volume” value in assay [3] is on record as 18.9 ml/4 hrs. Besides, in assay [4] (setting [5]), the IC50 was 0.0123 µM.

Turning to `COc1cc(C(=O)Nc2ccc(C(=O)N3Cc4cccn4Cc4ccccc43)cn2)cc(OC)c1OC` [Example 5], the inhibition at 10 µM was found to be 51% in assay [1] (1.5 h, * human platelet V1); 93% at oxytocin receptors; 47% in assay [4] (** human V2, LV-2 cell membranes, at 10 μM).

For the molecule `O=C(Nc1ccc(C(=O)N2Cc3cccn3Cc3ccccc32)cn1)c1ccc(F)cc1Cl` [Example 9], at oxytocin receptors (dose 2.5 μM), the inhibition at 2.5 µM was 96%. The IC50 was 0.17 µM on oxytocin receptors; 0.006 µM at Rat Hepatic V1 Receptors; 0.0009 µM in assay [4] (** LV-2 cells transfected with human V2 receptor cDNA, read-out: V2 IC50 (**human V2 receptor)); 0.0011 µM in assay [2].

In the case of `COc1cc(C(=O)Nc2ccc(C(=O)N3Cc4ccc(CN(C)C)n4Cc4ccccc43)cn2)cc(OC)c1OC` [Example 133, N-[5-[[3-[(Dimethylamino)methyl]-[5H-pyrrolo[2,1-c][1,4]benzodiazepin-10(11H)]yl]carbonyl]-2-pyridinyl]-3,4,5-trimethoxybenzamide], the inhibition at 10 µM in assay [1] (1.5 h, * human platelet V1) was 11%; on oxytocin receptors it was 59%; in assay [2] (at 10 μM) it was 21%.

On to `O=C(Nc1ccc(C(=O)N2Cc3cccn3Cc3ccccc32)c(Cl)c1)c1ccccc1-n1cccc1` [Example 377, N-[3-Chloro-4-(5H,11H-pyrrolo{2,1-c][1,4]benzodiazepine-10-carbonyl)-phenyl]-2-pyrrol-1-yl-benzamide], for which the “Urine Volume” value in assay [3] came to 13.2 ml/4 hrs. The IC50 in assay [4] (setting [5]) is 0.0045 µM.
